Measurements taken from patent publication US10543159B2, “Hair papilla cell activator” (Ezaki Glico Co., Ltd., priority 2014, dated 2020).

Key:
[1] = tested on: FGF-7; experiment: Expression rate of FGF-7 among acidic saccharide salts, quantitative PCR (Example 6); assay type: cell-based, human; conditions: Example 6: solutions (b)-(h) of b288 mixed 1:9 with DMEM, GAPDH reference, mean of 4 PCR assays, dihydrate
Protocol: (1) 500 μl of a special medium in which 2×10^4 cells/ml of follicle dermal papilla cells were suspended was dispensed into a type I collagen-coated 24-well cell culture plate (Corning), and cultured at a cell density of 5×10^3 cells/cm^2 at 37° C. for 72 hours. […] Oji Cornstarch Co., Ltd.), (f) a 2.5% (w/v) aqueous solution of a phosphorylated oligosaccharide magnesium salt (POs-Mg; […] (3) Each of the solutions (a) to (c) was mixed with DMEM high glucose (Sigma, USA) at a ratio of 1:9. (4) Following the procedures (4) to (6) in Example 2, mRNA was extracted from the cells, cDNA was prepared, and then the expression levels of the VEGF, FGF-7, and GAPDH genes were quantified by quantitative PCR. (7) Using GAPDH as a reference gene, a comparative analysis of expression levels was performed with the analysis software (Bio-Rad CFX Manager 3.0) included in CFX96Touch. The expression levels were calculated under the default conditions of the software.

[2] = tested on: Wnt5a; experiment: Quantitative PCR gene expression in follicle dermal papilla cells: Wnt5a; assay type: cell-based, human; conditions: Example 3: 0.25% POs-Ca (R) or CaCl2 of equivalent calcium, DMEM, 37° C., 5 hours; Dunnett, n=6
Protocol: (1) 500 μl of a special medium in which 4×10^4 cells/ml of follicle dermal papilla cells were suspended was dispensed into a type I collagen-coated 24-well cell culture plate (Corning), and cultured at a cell density of 1.0×10^4 cells/cm^2 at 37° C. for 42 hours. […] Each of the solutions (a) to (c) was mixed with DMEM high glucose (Sigma, USA) at a ratio of 1:9.
(3) The medium was aspirated from each well obtained in (1), the well was washed by adding 1 ml of 1×PBS (137 mM NaCl, 8.1 mM Na2HPO4, 2.68 mM KCl, 1.47 mM KH2PO4 (pH 7.4); Wako Pure Chemical Industries, Ltd.), and aspirating the PBS, 500 μl of DMEM high glucose was added, and the cells were incubated in a CO2 incubator at 37° C. for 5 hours. […]
(4) The medium was removed from each well, and then mRNA was extracted using CellAmp Direct RNA Prep Kit for RT-PCR (Takara). The method was performed in accordance with the manual for the kit.
(5) 8 μl of the extracted mRNA solution (200 μl for each well) was used, and cDNA was obtained by the reverse transcription reaction at a scale of 40 μl, using PrimeScript RT Master Mix (Takara). The reaction conditions were as set forth in the manual for the kit.
(6) 0.5 μl of each of cDNA solutions diluted 2-fold with water, 1 μl of a solution containing 4 μM of each of primers 1 and 2 for each of the genes shown in Table 2, 5 μl of SYBR Premix Ex Taq II (Takara), and 3.5 μl of water were added, and quantitative PCR was performed on each of the genes. Using CFX96 Touch (BIO-RAD, USA), denaturation treatment at 95° C. for 30 seconds was performed, and then a two-step cycle at 95° C. for 5 seconds and at 62° C. for 20 seconds was performed for 65 cycles. Fluorescence intensity after each cycle was measured.
(7) Using PGK1 and GAPDH as reference genes, a comparative analysis of expression levels was performed with the analysis software (Bio-Rad CFX Manager 3.0) included in CFX96Touch. Relative expression levels were calculated under the default conditions of the software. […]

[3] = tested on: versican; experiment: Quantitative PCR gene expression in follicle dermal papilla cells: versican; assay type: cell-based, human; conditions: Example 3: 0.25% POs-Ca (R) or CaCl2 of equivalent calcium, DMEM, 37° C., 5 hours; Dunnett, n=6
Protocol: (§1) (1) 500 μl of a special medium in which 4×10^4 cells/ml of follicle dermal papilla cells were suspended was dispensed into a type I collagen-coated 24-well cell culture plate (Corning), and cultured at a cell density of 1.0×10^4 cells/cm^2 at 37° C. for 42 hours. (2) (a) Water (control), (b) a 2.5% (w/v) aqueous solution of POs-Ca (R), and (c) a 0.457% aqueous solution of CaCl2 (having an equivalent amount of calcium to that of (b)) were prepared. Each of the solutions (a) to (c) was mixed with DMEM high glucose (Sigma, USA) at a ratio of 1:9. […]
(§2) (6) 0.5 μl of each of cDNA solutions diluted 2-fold with water, 1 μl of a solution containing 4 μM of each of primers 1 and 2 for each of the genes shown in Table 2, 5 μl of SYBR Premix Ex Taq II (Takara), and 3.5 μl of water were added, and quantitative PCR was performed on each of the genes. […] Fluorescence intensity after each cycle was measured.
(§3) (8) The average value of calculated expression levels was determined for the six samples derived from the cells treated under the respective conditions, and defined as the expression level relative to the control.

[4] = tested on: VEGFB; experiment: Quantitative PCR gene expression in follicle dermal papilla cells: VEGFB; assay type: cell-based, human; conditions: Example 3: 0.25% POs-Ca (R) or CaCl2 of equivalent calcium, DMEM, 37° C., 5 hours; Dunnett, n=6
Protocol: as §1, §2, §3

[5] = tested on: tenascin C; experiment: Quantitative PCR gene expression in follicle dermal papilla cells: tenascin C; assay type: cell-based, human; conditions: Example 3: 0.25% POs-Ca (R) or CaCl2 of equivalent calcium, DMEM, 37° C., 5 hours; Dunnett, n=6
Protocol: as §1, §2, §3

[6] = tested on: fibronectin; experiment: Quantitative PCR gene expression in follicle dermal papilla cells: fibronectin; assay type: cell-based, human; conditions: Example 3: 0.25% POs-Ca (R) or CaCl2 of equivalent calcium, DMEM, 37° C., 5 hours; Dunnett, n=6
Protocol: as §1, §2, §3

[7] = tested on: human follicle dermal papilla cells; experiment: Follicle dermal papilla cell proliferation, Cell Counting Kit-F cell count (Example 2); assay type: cell-based; conditions: concentration series of Table 1A, 3 days
Protocol: A strain (Lot. 3092504.12) sold by PromoCell (Germany) was used as human follicle dermal papilla cells. The cells were cultured in a CO2 incubator at 37° C., using a special medium for follicle dermal papilla cells (PromoCell), unless otherwise indicated. Cell subculturing was performed as follows: cells were seeded at 5000 to 10000 cells/cm^2 in an uncoated dish, and when the cells reached subconfluent, they were treated with trypsin-EDTA (0.03%) and detached, and then re-seeded. […] The medium was replaced about once every 3 days.
1. The procedures (1) and (3) to (5) in Example 1 were performed in the same manner as described above. Solutions of the compositions shown in the following table were prepared in a concentration series starting from a 10% (w/v) aqueous solution of POs-Ca (R), a 12.9% (w/v) aqueous solution of G1P-Ca, a 1.84% (w/v) aqueous solution of CaCl2.2H2O, or a 10% (w/v) aqueous solution of POs-Na.
2. In place of the conditions ((6), (7) and (8)) in Example 1, Cell Counting Kit-F (Dojindo Molecular Technologies, Inc.) was added to each well in accordance with the manual, and the number of cells was counted.

## O.O.[Ca+2].[Cl-].[Cl-] [CaCl2, calcium chloride dihydrate]
[1]
  FGF7, relative values of the expression levels based on the control as 1: 1.02
[1]; listed as calcium chloride
  FGF7, relative values of the expression levels based on the control as 1: either comparable to or below the control
[2]
  expression of Wnt5a gene compared to control: significant increases in the expression of genes were not observed
[3]
  expression of versican gene compared to control: significantly decreased
[4]
  expression of VEGFB compared to control: significantly increased
[5]
  expression of tenascin C gene compared to control: significant increases in the expression of genes were not observed
[6]
  expression of fibronectin gene compared to control: significantly decreased
[7]
  number of cells compared to that without addition: not observed
